# Results: PubChem BioAssay (NCI)
#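 48-hour exposure; five concentrations; linearly interpolated endpoints. GI50 marks 50% less growth. TGI denotes the concentration required for complete inhibition of growth.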
# Tests used:
# Test in all cases: DTP human tumour cell line panel, 48 h
# 786-0 renal = tested on: 786-0 renal
# A498 renal = tested on: A498 renal
# A549 NSCLC = tested on: A549 NSCLC
# ACHN renal = tested on: ACHN renal
# BT-549 breast = tested on: BT-549 breast
# CAKI-1 renal = tested on: CAKI-1 renal
# CCRF-CEM leukemia = tested on: CCRF-CEM leukemia
# COLO 205 colon = tested on: COLO 205 colon
# DU-145 prostate = tested on: DU-145 prostate
# EKVX NSCLC = tested on: EKVX NSCLC
# HCC-2998 colon = tested on: HCC-2998 colon
# HCT-116 colon = tested on: HCT-116 colon
# HCT-15 colon = tested on: HCT-15 colon
# HL-60(TB) leukemia = tested on: HL-60(TB) leukemia
# HOP-62 NSCLC = tested on: HOP-62 NSCLC
# HOP-92 NSCLC = tested on: HOP-92 NSCLC
# HS 578T breast = tested on: HS 578T breast
# HT29 colon = tested on: HT29 colon
# IGROV1 ovarian = tested on: IGROV1 ovarian
# K-562 leukemia = tested on: K-562 leukemia
# KM12 colon = tested on: KM12 colon
# LOX IMVI melanoma = tested on: LOX IMVI melanoma
# M14 melanoma = tested on: M14 melanoma
# MALME-3M melanoma = tested on: MALME-3M melanoma
# MCF7 breast = tested on: MCF7 breast
# MDA-MB-231 breast = tested on: MDA-MB-231 breast
# MDA-MB-435 = tested on: MDA-MB-435
# MDA-N = tested on: MDA-N
# MOLT-4 leukemia = tested on: MOLT-4 leukemia
# NCI-H226 lung = tested on: NCI-H226 lung
# NCI-H23 lung = tested on: NCI-H23 lung
# NCI-H460 lung = tested on: NCI-H460 lung
# NCI-H522 lung = tested on: NCI-H522 lung
# NCI/ADR-RES ovarian = tested on: NCI/ADR-RES ovarian
# OVCAR-4 ovarian = tested on: OVCAR-4 ovarian
# OVCAR-5 ovarian = tested on: OVCAR-5 ovarian
# OVCAR-8 ovarian = tested on: OVCAR-8 ovarian
# PC-3 prostate = tested on: PC-3 prostate
# RPMI-8226 leukemia = tested on: RPMI-8226 leukemia
# RXF 393 renal = tested on: RXF 393 renal
# SF-268 CNS = tested on: SF-268 CNS
# SF-295 CNS = tested on: SF-295 CNS
# SF-539 CNS = tested on: SF-539 CNS
# SK-MEL-2 melanoma = tested on: SK-MEL-2 melanoma
# SK-MEL-28 melanoma = tested on: SK-MEL-28 melanoma
# SK-OV-3 ovarian = tested on: SK-OV-3 ovarian
# SN12C renal = tested on: SN12C renal
# SNB-19 CNS = tested on: SNB-19 CNS
# SNB-75 CNS = tested on: SNB-75 CNS
# SW-620 colon = tested on: SW-620 colon
# T-47D breast = tested on: T-47D breast
# TK-10 renal = tested on: TK-10 renal
# U251 CNS = tested on: U251 CNS
# UACC-257 melanoma = tested on: UACC-257 melanoma
# UACC-62 melanoma = tested on: UACC-62 melanoma
# OVCAR-3 ovarian = tested on: OVCAR-3 ovarian
# SK-MEL-5 melanoma = tested on: SK-MEL-5 melanoma
# UO-31 renal = tested on: UO-31 renal
structure (smiles),measurement,setting,value
O=c1c(-c2ccccc2)c(SCCN2CCCC2)n(-c2ccccc2)c(=S)n1-c1ccccc1,TGI,786-0 renal,> 100 µM
same,TGI,A498 renal,> 100 µM
same,TGI,A549 NSCLC,> 100 µM
same,TGI,ACHN renal,> 100 µM
same,TGI,BT-549 breast,> 100 µM
same,TGI,CAKI-1 renal,> 100 µM
same,TGI,CCRF-CEM leukemia,> 100 µM
same,TGI,COLO 205 colon,> 100 µM
same,TGI,DU-145 prostate,> 100 µM
same,TGI,EKVX NSCLC,> 100 µM
same,TGI,HCC-2998 colon,> 100 µM
same,TGI,HCT-116 colon,> 100 µM
same,TGI,HCT-15 colon,> 100 µM
same,TGI,HL-60(TB) leukemia,> 100 µM
same,TGI,HOP-62 NSCLC,> 100 µM
same,TGI,HOP-92 NSCLC,> 100 µM
same,TGI,HS 578T breast,> 100 µM
same,TGI,HT29 colon,> 100 µM
same,TGI,IGROV1 ovarian,> 100 µM
same,TGI,K-562 leukemia,> 100 µM
same,TGI,KM12 colon,> 100 µM
same,TGI,LOX IMVI melanoma,> 100 µM
same,TGI,M14 melanoma,> 100 µM
same,TGI,MALME-3M melanoma,> 100 µM
same,TGI,MCF7 breast,> 100 µM
same,TGI,MDA-MB-231 breast,> 100 µM
same,TGI,MDA-MB-435,> 100 µM
same,TGI,MDA-N,> 100 µM
same,TGI,MOLT-4 leukemia,> 100 µM
same,TGI,NCI-H226 lung,> 100 µM
same,TGI,NCI-H23 lung,> 100 µM
same,TGI,NCI-H460 lung,> 100 µM
same,TGI,NCI-H522 lung,> 100 µM
same,TGI,NCI/ADR-RES ovarian,> 100 µM
same,TGI,OVCAR-4 ovarian,> 100 µM
same,TGI,OVCAR-5 ovarian,> 100 µM
same,TGI,OVCAR-8 ovarian,> 100 µM
same,TGI,PC-3 prostate,> 100 µM
same,TGI,RPMI-8226 leukemia,> 100 µM
same,TGI,RXF 393 renal,> 100 µM
same,TGI,SF-268 CNS,> 100 µM
same,TGI,SF-295 CNS,> 100 µM
same,TGI,SF-539 CNS,> 100 µM
same,TGI,SK-MEL-2 melanoma,> 100 µM
same,TGI,SK-MEL-28 melanoma,> 100 µM
same,TGI,SK-OV-3 ovarian,> 100 µM
same,TGI,SN12C renal,> 100 µM
same,TGI,SNB-19 CNS,> 100 µM
same,TGI,SNB-75 CNS,> 100 µM
same,TGI,SW-620 colon,> 100 µM
same,TGI,T-47D breast,> 100 µM
same,TGI,TK-10 renal,> 100 µM
same,TGI,U251 CNS,> 100 µM
same,TGI,UACC-257 melanoma,> 100 µM
same,TGI,UACC-62 melanoma,> 100 µM
COc1ccccc1-c1cc(=O)c2c(C)cc(C)nc2[nH]1,GI50,786-0 renal,> 100 µM
same,TGI,786-0 renal,> 100 µM
same,TGI,A498 renal,> 100 µM
same,TGI,A549 NSCLC,> 100 µM
same,TGI,ACHN renal,> 100 µM
same,TGI,BT-549 breast,> 100 µM
same,TGI,CAKI-1 renal,> 100 µM
same,TGI,CCRF-CEM leukemia,> 100 µM
same,TGI,COLO 205 colon,> 100 µM
same,TGI,DU-145 prostate,> 100 µM
same,TGI,EKVX NSCLC,> 100 µM
same,TGI,HCC-2998 colon,> 100 µM
same,GI50,HCT-116 colon,74.5 µM
same,TGI,HCT-116 colon,> 100 µM
same,TGI,HCT-15 colon,> 100 µM
same,GI50,HL-60(TB) leukemia,30.4 µM
same,TGI,HL-60(TB) leukemia,> 100 µM
same,TGI,HOP-62 NSCLC,> 100 µM
same,TGI,HOP-92 NSCLC,94.4 µM
same,TGI,HS 578T breast,> 100 µM
same,TGI,HT29 colon,> 100 µM
same,TGI,IGROV1 ovarian,> 100 µM
same,TGI,K-562 leukemia,> 100 µM
same,TGI,KM12 colon,> 100 µM
same,TGI,LOX IMVI melanoma,> 100 µM
same,TGI,M14 melanoma,> 100 µM
same,TGI,MALME-3M melanoma,> 100 µM
same,TGI,MCF7 breast,> 100 µM
same,TGI,MDA-MB-231 breast,> 100 µM
same,GI50,MDA-MB-435,32.1 µM
same,TGI,MDA-MB-435,> 100 µM
same,GI50,MDA-N,33.2 µM
same,TGI,MDA-N,> 100 µM
same,TGI,MOLT-4 leukemia,> 100 µM
same,TGI,NCI-H226 lung,> 100 µM
same,TGI,NCI-H23 lung,> 100 µM
same,GI50,NCI-H460 lung,70.1 µM
same,TGI,NCI-H460 lung,> 100 µM
same,TGI,NCI-H522 lung,> 100 µM
same,TGI,NCI/ADR-RES ovarian,> 100 µM
same,GI50,OVCAR-3 ovarian,64.2 µM
same,TGI,OVCAR-3 ovarian,> 100 µM
same,TGI,OVCAR-4 ovarian,> 100 µM
same,TGI,OVCAR-5 ovarian,> 100 µM
same,TGI,OVCAR-8 ovarian,> 100 µM
same,GI50,PC-3 prostate,48.3 µM
same,TGI,PC-3 prostate,> 100 µM
same,TGI,RPMI-8226 leukemia,> 100 µM
same,TGI,RXF 393 renal,> 100 µM
same,TGI,SF-268 CNS,> 100 µM
same,GI50,SF-295 CNS,53.1 µM
same,TGI,SF-295 CNS,> 100 µM
same,TGI,SF-539 CNS,> 100 µM
same,TGI,SK-MEL-2 melanoma,> 100 µM
same,TGI,SK-MEL-28 melanoma,> 100 µM
same,GI50,SK-MEL-5 melanoma,33.7 µM
same,TGI,SK-MEL-5 melanoma,> 100 µM
same,TGI,SK-OV-3 ovarian,> 100 µM
same,TGI,SN12C renal,> 100 µM
same,TGI,SNB-19 CNS,> 100 µM
same,TGI,SW-620 colon,> 100 µM
same,TGI,T-47D breast,> 100 µM
same,TGI,TK-10 renal,> 100 µM
same,GI50,U251 CNS,> 100 µM
same,TGI,U251 CNS,> 100 µM
same,TGI,UACC-257 melanoma,> 100 µM
same,TGI,UACC-62 melanoma,> 100 µM
same,TGI,UO-31 renal,> 100 µM
